The values that follow come from patent publication US11203583B2, “Prodrug and profluorescent compounds for selective mitochondrial imaging and therapeutic targeting” (ARIZONA BOARD OF REGENTS ON BEHALF OF ARIZONA STATE …, priority 2016, dated 2021).

“Also recorded” adds a separate entry of the source.

Data set [1] can be described thus: Relative fluorescence quantum yield. The format is physicochemical. Here is the method:
All experiments requiring anhydrous conditions were conducted in flame-dried glassware fitted with a rubber septum under a positive pressure of dry argon. Reactions were performed at room temperature unless otherwise indicated. Analytical thin layer chromatography was performed using glass plates pre-coated with silica gel (0.25 mm, 60 Å pore size, 230-400 mesh, Silicycle) impregnated with a fluorescent indicator (254 nm). TLC plates were visualized by exposure to ultraviolet light (UV) or by staining using […]. Flash column chromatography was performed employing silica gel (60 Å pore size, 40-63 μm, standard grade, Silicycle). Fluorescence quantum yields were measured at 25° C. by a relative method using cresyl violet (CV, ΦF=56% in EtOH) as a standard.^1 The following equation was used to determine the relative fluorescence quantum yield: ΦF(x)=(AS/AX)(FX/FS)(nX/nS)^2ΦF(s) where A is the absorbance (in the range of 0.01-0.1 A.U.), F is the area under the emission curve, n is the refractive index of the solvents (at 25° C.) used in measurements, and the subscripts s and x represent standard and unknown, respectively. The following refractive index values were used: 1.362 for EtOH and 1.337 for PBS.

The test system of data set [2] is NADH oxidase (mitochondrial respiratory complexes I, III, and IV). Description: NADH oxidase activity assay in bovine heart submitochondrial particles. The data set is classed as biochemical. The note with it: for NADH oxidase inhibitory activity (qualitative comparison): 0.05, 0.1 and 0.5 μM concentrations, FIG. 9a. As for the experimental part: The effect of compounds AMA, 4a and 4b on NADH oxidase activity were evaluated using bovine heart mitochondria. The bovine heart mitochondria and bovine heart submitochondrial particles (SMPs) were prepared as described.^2 The SMPs were diluted to 0.5 mg/mL, and the test compounds were assayed at 25° C. and monitored spectrophotometrically using a Beckman Coulter DU-530 spectrometer (340 nm, c 6.22 mM^−1 cm^−1). NADH oxidase activity was determined in 1 mL of 50 mM Hepes buffer containing 5 mM MgCl2, pH 7.5. The final mitochondrial protein concentration was 30 μg/mL. The initial rates of NADH oxidation were calculated from the linear portion of the traces. Data are reported as the mean of three independent experiments each run in triplicate.

For data set [3], the system named is mitochondrial nitroreductase in live A549 cells. As to the kind of experiment: Fluorescence microscopy: activation of prodrugs 4a and 4b (AMA release) in live A549 cells. The data set is classed as cell-based, human. The note with it: 25 μM; for localization of AMA fluorescence relative to mitochondria in A549 cells: MitoTracker Green FM; for release of AMA (appearance of AMA fluorescence, λem ~425 nm) in live A549 cells: 4 hours. Here is the method: The finding of nitroreductase activity associated with the mitochondria of human cells encouraged us to design a new prodrug based on the mitochondrial poison antimycin A (AMA). It has recently been noted that AMA is toxic only at relatively high concentration,^19 plausibly due to a lack of facile access to the mitochondria. […] Accordingly, 0-p-nitrobenzyl-AMA (4a) was prepared in good yield by alkylation of AMA (FIG. 8a). Also prepared as a control was O-benzyl-AMA (4b). […] Accordingly, it is possible to monitor the release of AMA within the mitochondria after enzymatic reduction of the nitro moiety in 4a.
Fluorescence microscopy images were acquired using a Zeiss Axiovert 200M inverted microscope fitted with an AxioCam MRm camera equipped with a 300 W xenon lamp (Sutter, Novato, Calif., USA), and DAPI (blue channel) and Texas red (red channel) filters (Chroma, Bellows Falls, Vt., USA). A549 cells were grown on glass bottom microwell disks (MatTek Corporation, MA, USA) at a cell density of 10000 cells/well at 37° C. for 24 hours. When the cell confluence reached ˜60-70%, the cells were rinsed three times with phosphate buffered saline (PBS). The cells were then treated with AMA, 4a and 4b at 25 μM concentration for 4 hours. The cells were then stained using 100 nM MitoTracker Green FM (Cell Signaling Technology, Danvers, Mass., USA) for 40 minutes. Thereafter, all images were recorded and counted using a 40× oil objective. To ensure accurate intensity measurements, the exposure time and laser time were kept the same. Data are reported as the mean of three independent experiments.

A further data set has as its system A549 lung cancer cells. Description: MTT toxicity assay. The format is cell-based, human. The following applies: 24 h incubation at 1, 5 and 10 μM, FIG. 9b. Here is the method: Exponentially growing A459 cells were harvested and plated in 96-well plates at a concentration of 2×10^4 cells/well. After incubation at 37° C. for 24 h, the cells were treated with compounds AMA, 4a and 4b at final concentrations of 1, 5 and 10 μM for an additional 24 hours. Then 20 μL of MTT (5 mg/mL) was added to each well and the plates were incubated at 37° C. for 4 h. The supernatants were discarded, and 100 μL of DMSO was added to each well. The absorbance was recorded at 490 nm after 15 min. Cell viability was determined by the following formula: cell viability (%)=100−(ODnegative control−ODtreatment)×100%/(ODnegative control−ODbackground). Data are reported as the mean of three independent experiments, each run was carried out quintuplicate.

The test system of data set [4] is mitochondrial nitroreductase in live A549 cells. As to the kind of experiment: Fluorescence microscopy: activation of probes 2a, 2b and 2c in live A549 cells. The format is cell-based, human. An excerpt: (§1) The strategy for the release of the fluorescent NIR dye from a non-fluorescent precursor via mitochondrial nitroreductase-mediated reduction involved successive reduction, then elimination (FIG. 5b). The use of ortho, meta and para substituted probes (2a-2c) was crucial because it enabled the investigation of the proposed transformation in greater detail. […] To assess the viability of these probes for the detection of nitroreductase activity, we first validated the probes in a cell free system using purified E. coli nitroreductase. Probes 2a-c (10 μM) were incubated in PBS buffer, pH 7.4, containing 0.5 mM NADH. After a short time, during which no fluorescence was observed, the nitroreductase was added (1 μg mL^−1) and the development of fluorescence was monitored as a function of time (FIGS. 6b, 6c). […] This confirms that the released fluorescent dye is effectively of the QCy7 type by comparison with an authentic standard prepared by chemical synthesis (FIG. 13). With the viability of this probe thus confirmed, we carried out microscopy experiments employing A549 cancer cells. The incubation of 10 μM 2c with the cells for 4 hours was followed by the addition of […] mitotracker green (40-minute incubation). […] The green channel (FIG. 7b) illustrates visualization of the mitochondria by mitotracker green. […] For 2b this is understandable as no elimination process is possible, as confirmed during the in vitro tests. In the case of 2a, we assume that the low kinetics of the reduction (c.f. FIG. 6b) is probably the cause of the absence of a strong signal. […]
Fluorescence images were acquired using a Zeiss Axiovert 200M inverted microscope fitted with an AxioCam MRm camera equipped with a 300 W xenon lamp (Sutter, Novato, Calif.), and Texas red and FITC filters (Chroma, Bellows Falls, Vt.). […] Thereafter, all images were recorded and the target cells counted using a 40× oil objective. […] Pixel intensity was quantified using AxioVision release 4.7 version software, and the mean pixel intensity was generated as gray level. […]

The next data set addresses E. coli nitroreductase (Escherichia coli, UniProt P38489). As to the kind of experiment: Cell-free activation of profluorescent probes by purified E. coli nitroreductase (fluorescence monitoring). The format is biochemical.
From the text: as §1
A solution of fluorogenic probe was prepared in 1 mL of phosphate buffered saline (PBS) and 150 μL of the resulting solution was transferred into a quartz fluorescence cell. […] After excitation at 572 nm the emission of the released fluorophore was monitored at 703 nm over time with measurements recorded every 1 sec. After 100 sec of incubation, 1.51 μL of a 1 mg mL^−1 solution of E. coli nitroreductase in water was added in the quartz fluorescence cell and the solution was mixed as the monitoring proceeded.

For another data set, the target named is DT diaphorase (Homo sapiens, UniProt P15559). As to the kind of experiment: Selectivity of probe activation: DT diaphorase versus nitroreductase. The note with it: 10 μM 2c, 1 μg mL^-1 DTD or NTR, 10 mM PBS pH 7.4, 20 min, 25° C. The data set is classed as biochemical. As for the experimental part:
FIGS. 6A-6D. (a) Selective activation of 2c in vitro by E. coli nitroreductase. (b) Time dependent fluorescence emission by 2a, 2b and 2c (excitation at 572 nm; emission at 703 nm) in PBS at 25° C. following treatment with E. coli NTR (1 μg mL^−1) and 0.5 mM NADH. (c) Absorbance spectrum evolution with time during incubation of probe 2c in […] PBS buffer, pH 7.4, with E. coli NTR (1 μg mL^−1) and 0.5 mM NADH. (d) Development of fluorescence from 10 μM 2c following treatment with 1 μg mL^−1 DT diaphorase (DTD) or nitroreductase (NTR) in 10 mM PBS buffer, pH 7.4, for 20 min at 25° C. with or without […] NADH.
The strategy for the release of the fluorescent NIR dye from a non-fluorescent precursor via mitochondrial nitroreductase-mediated reduction involved successive reduction, then elimination (FIG. 5b). The use of ortho, meta and para substituted probes (2a-2c) was crucial because it enabled the investigation of the proposed transformation in greater detail. […] To assess the viability of these probes for the detection of nitroreductase activity, we first validated the probes in a cell free system using purified E. coli nitroreductase. […] After a short time, during which no fluorescence was observed, the nitroreductase was added (1 μg mL^−1) and the development of fluorescence was monitored as a function of time (FIGS. 6b, 6c). […]

Sequence of E. coli nitroreductase (P38489 whole entry): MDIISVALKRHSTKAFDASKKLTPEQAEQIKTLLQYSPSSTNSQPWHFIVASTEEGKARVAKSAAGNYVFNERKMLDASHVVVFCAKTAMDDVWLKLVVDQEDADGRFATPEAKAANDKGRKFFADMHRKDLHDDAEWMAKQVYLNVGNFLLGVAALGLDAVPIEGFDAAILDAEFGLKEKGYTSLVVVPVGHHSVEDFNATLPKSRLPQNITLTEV
Sequence of DT diaphorase (P15559 whole entry, species assumed): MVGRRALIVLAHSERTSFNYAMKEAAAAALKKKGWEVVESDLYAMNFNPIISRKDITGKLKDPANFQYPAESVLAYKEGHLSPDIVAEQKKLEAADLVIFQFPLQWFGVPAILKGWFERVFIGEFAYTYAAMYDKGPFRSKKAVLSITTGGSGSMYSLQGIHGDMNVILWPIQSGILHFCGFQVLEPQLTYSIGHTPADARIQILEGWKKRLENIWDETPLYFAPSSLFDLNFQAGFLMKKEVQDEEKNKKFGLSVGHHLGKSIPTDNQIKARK

As to `CCCCCC[C@H]1C(=O)O[C@H](C)[C@H](NC(=O)c2cccc(NC=O)c2O)C(=O)O[C@@H](C)[C@@H]1OC(=O)CC(C)C` [AMA, antimycin A, reference compound], the “quantum yield of the released AMA” value in data set [1] is listed as ~0.06. Moreover, the “inhibition of NADH oxidase” value in data set [2] (50 nM concentration) is on record as “essentially completely”. The “NADH oxidase inhibitory activity (qualitative comparison)” value (“NADH oxidase inhibitory activity” below) in data set [2] is recorded as “potent inhibitor”. In addition, in data set [3], the “localization of AMA fluorescence relative to mitochondria in A549 cells” value is reported as “did not fully colocalize with mitochondria”.
Take `CCCCCC[C@H]1C(=O)O[C@H](C)[C@H](NC(=O)c2cccc(NC=O)c2OCc2ccc([N+](=O)[O-])cc2)C(=O)O[C@@H](C)[C@@H]1OC(=O)CC(C)C` [Compound 4a, 2-O-(p-Nitrobenzyl)AMA]: the “cytotoxicity toward A549 cancer cells (qualitative comparison)” value in the data set with A549 lung cancer cells is “much more cytoxic toward A549 cancer cells than 4b; also recorded: considerably more cytotoxic than exogenously added AMA”. In data set [2], the “NADH oxidase inhibitory activity” value was “much weaker activity”. In data set [3], the “release of AMA (appearance of AMA fluorescence, λem ~425 nm) in live A549 cells” value is “AMA was released from 4a” and the “localization of AMA fluorescence relative to mitochondria in A549 cells” value is reported as “Free AMA appeared exclusively in the mitochondria; also recorded: localized to the mitochondria”.
Take `CCCCCC[C@H]1C(=O)O[C@H](C)[C@H](NC(=O)c2cccc(NC=O)c2OCc2ccccc2)C(=O)O[C@@H](C)[C@@H]1OC(=O)CC(C)C` [Compound 4b, 2-O-Benzyl-AMA]: in data set [2], the “NADH oxidase inhibitory activity” value is on record as “much weaker activity”. Besides, in data set [3], the “release of AMA (appearance of AMA fluorescence, λem ~425 nm) in live A549 cells” value is on record as “no significant release of AMA; also recorded: not to a significant extent”.
As for `CC[N+]1=C(/C=C/c2ccc(OCc3ccc([N+](=O)[O-])cc3)c(/C=C/C3=[N+](CC)c4ccccc4C3(C)C)c2)C(C)(C)c2ccccc21` [probe 2c], the “colocalization of probe fluorescence with MitoTracker Green (mitochondria)” value in data set [4] (10 μM 2c, 100 nM MitoTracker Green FM, DAPI) was “colocalized to mitochondria; also recorded: complete overlap of the red and green signals”. The “red fluorescence signal (release of QCy7 dye 3) in live A549 cells” value in data set [4] (10 μM probe, 4 hours incubation, no hypoxic condition) was “activation of 2c by mitochondrial nitroreductase; also recorded: appearance of a red signal”. For the same compound, the “concentration dependence of the signal in A549 cells” value in data set [4] (different times and concentrations, FIG. 16) was “concentration dependent”. Moreover, the “rate of activation by E. coli nitroreductase, compared between probes” value on E. coli nitroreductase (10 μM probe, PBS pH 7.4, 0.5 mM NADH, NTR 1 μg mL^-1) was “much faster than the activation of 2a”. In addition, the “development of fluorescence (activation) after addition of E. coli nitroreductase” value on E. coli nitroreductase (10 μM probe, PBS pH 7.4, 0.5 mM NADH, NTR 1 μg mL^-1, excitation 572 nm, emission 703 nm, 25° C.) is “good activation”. The “dependence of fluorescence / activation on probe concentration” value at E. coli nitroreductase (PBS 25° C., 0.5 mM NADH, E. coli NTR 1 μg mL^-1) is “linear correlation between fluorescence intensity and probe concentration; also recorded: increased with increasing substrate concentration”. The “activation by DT diaphorase versus nitroreductase, with or without NADH” value at DT diaphorase is reported as “significant activation occurred only in the presence of the nitroreductase+NADH”.
